Holding throughout (assay type): cell-based
In one experiment the target is T1, MCHR1 L172(2.64)A (Homo sapiens, UniProt Q99705, L103A).
T1 construct: expressed in transfected cells; host or cells: HEK293
Briefly: GloSensor cAMP assay, MCHR1 L172A. Conditions: HEK293, mean ± S.E.M., n = 3 in triplicate. The text has this:
(§1) The gene sequences encoding human MCHR1 (residues 70‒405) and MCHR2 (residues 1‒331, with L256^6.40Y mutation) were subcloned into pFastBac vector (Invitrogen) with an N-terminal haemagglutinin signal peptide (HA) and a thermostabilized BRIL fusion, followed by a C-terminal 15-amino acid linker, a LgBiT subunit and two MBPs to facilitate receptor expression and stability. The Gαi construct was designed with dominant-negative mutations S47N, G203A, A326S, and E245A to decrease the affinity of nucleotide-binding and stable Gαβγ complex. The mini-Gαq construct was designed with the C-terminal α-helix (αH5) of Gαq, which is critical for G protein coupling selectivity. The core of the construct, known as the Ras domain, is derived from Gαs. This design choice was made to enable the binding of the nanobody Nb35, which stabilizes the complex for cryo-EM analysis. […] Rat Gβ1 was constructed with a N-terminal 16× His-tag for purification and a C-terminal HiBiT to form a NanoBiT with LgBiT. […] The wild-type and mutants of MCHR1 and MCHR2 were constructed into the pcDNA6.0 vector […] for functional assays.
(§2) GloSensor cAMP assay was used to detect the downstream Gαi signal of MCHR1 using GloSensor cAMP Reagent (Promega).

Another experiment addresses T2, MCHR1 F256(ECL2)A (Homo sapiens, UniProt Q99705, F187A).
T2 construct: expressed in transfected cells; host or cells: HEK293
Briefly: GloSensor cAMP assay, MCHR1 F256A. The note with it: HEK293, mean ± S.E.M., n = 3 in triplicate.
Excerpt: as §1, §2

Another experiment has as its target T3, MCHR1 P354(ECL3)A (Homo sapiens, UniProt Q99705, P285A).
T3 construct: expressed in transfected cells; host or cells: HEK293
Briefly: GloSensor cAMP assay, MCHR1 P354A. The note with it: HEK293, mean ± S.E.M., n = 3 in triplicate.
Excerpt: as §1, §2

Another experiment has as its target T4, MCHR1 Y370(7.42)A (Homo sapiens, UniProt Q99705, Y301A).
T4 construct: expressed in transfected cells; host or cells: HEK293
Briefly: GloSensor cAMP assay, MCHR1 Y370A. Conditions: HEK293, mean ± S.E.M., n = 3 in triplicate. The text has this: (§3) The gene sequences encoding human MCHR1 (residues 70‒405) and MCHR2 (residues 1‒331, with L256^6.40Y mutation) were subcloned into pFastBac vector (Invitrogen) with an N-terminal haemagglutinin signal peptide (HA) and a thermostabilized BRIL fusion, followed by a C-terminal 15-amino acid linker, a LgBiT subunit and two MBPs to facilitate receptor expression and stability. The Gαi construct was designed with dominant-negative mutations S47N, G203A, A326S, and E245A to decrease the affinity of nucleotide-binding and stable Gαβγ complex. The mini-Gαq construct was designed with the C-terminal α-helix (αH5) of Gαq, which is critical for G protein coupling selectivity. The core of the construct, known as the Ras domain, is derived from Gαs. This design choice was made to enable the binding of the nanobody Nb35, which stabilizes the complex for cryo-EM analysis. […]
GloSensor cAMP assay was used to detect the downstream Gαi signal of MCHR1 using GloSensor cAMP Reagent (Promega). […] The sample mixtures were immediately measured with an EnVision multi-plate reader (PerkinElmer).
(§4) Concentration–response curves were evaluated with a three-parameter logistic equation. The significance was determined with one-way ANOVA with Tukey’s test, and P < 0.05 vs wild type was considered statistically significant.

Another experiment deals with T5, MCHR2 G96(ECL1)A (Homo sapiens, UniProt Q969V1, G96A).
T5 construct: expressed in transfected cells; host or cells: AD293
Briefly: IP-One IP1 accumulation assay, MCHR2 G96A. The note with it: n = 3 in triplicate.
Excerpt: as §3
(§5) IP1 accumulation assay was applied for the detection of the downstream Gαq signal of MCHR2 using the IP-One HTRF kit (Cisbio). […] Before measurement, the samples were incubated at RT for 30 min and measured with EnVision multi-plate reader (PerkinElmer).
as §4

In a further experiment the target is T6, MCHR2 F186(45.52)A (Homo sapiens, UniProt Q969V1, F186A).
T6 construct: expressed in transfected cells; host or cells: AD293
Briefly: IP-One IP1 accumulation assay, MCHR2 F186A. Conditions: AD293, mean ± S.E.M., n = 3 in triplicate.
Excerpt: as §3, §5, §4

The next experiment deals with T7, MCHR2 L188(ECL2)A (Homo sapiens, UniProt Q969V1, L188A).
T7 construct: expressed in transfected cells; host or cells: AD293
Briefly: IP-One IP1 accumulation assay, MCHR2 L188A. Conditions: AD293, mean ± S.E.M., n = 3 in triplicate.
Excerpt: as §3, §5, §4

In a further experiment the target is T8, MCHR2 Q271(6.55)A (Homo sapiens, UniProt Q969V1, Q271A).
T8 construct: expressed in transfected cells; host or cells: AD293
Briefly: IP-One IP1 accumulation assay, MCHR2 Q271A. Conditions: n = 3 in triplicate.
Excerpt: as §3, §5, §4

For the next experiment, the target named is T9, MCHR2 Y288(7.35)A (Homo sapiens, UniProt Q969V1, Y288A).
T9 construct: expressed in transfected cells; host or cells: AD293
Briefly: IP-One IP1 accumulation assay, MCHR2 Y288A. The note with it: n = 3 in triplicate.
Excerpt: as §3, §5, §4

The target of another experiment is T10, MCHR2 I292(7.39)A (Homo sapiens, UniProt Q969V1, I292A).
T10 construct: expressed in transfected cells; host or cells: AD293
Briefly: IP-One IP1 accumulation assay, MCHR2 I292A. The note with it: n = 3 in triplicate.
Excerpt: as §3, §5, §4

[1] abbreviates: AD293, IP-One HTRF, 37 °C 1 h, mean ± S.E.M., P < 0.0001 vs WT.

T10 sequence (Q969V1 whole entry I292A): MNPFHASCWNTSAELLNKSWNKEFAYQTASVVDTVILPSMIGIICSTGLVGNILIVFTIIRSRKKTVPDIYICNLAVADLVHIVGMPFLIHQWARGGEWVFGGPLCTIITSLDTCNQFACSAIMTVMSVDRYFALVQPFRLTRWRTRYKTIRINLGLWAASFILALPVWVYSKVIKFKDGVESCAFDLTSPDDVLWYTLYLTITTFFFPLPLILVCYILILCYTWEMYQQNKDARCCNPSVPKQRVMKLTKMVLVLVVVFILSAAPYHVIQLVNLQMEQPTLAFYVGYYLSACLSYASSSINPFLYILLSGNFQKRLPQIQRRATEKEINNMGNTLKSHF
T9 sequence (Q969V1 whole entry Y288A): as the sequence (Q969V1 whole entry I292A) above, with Y288A, A292I counted along it
T5 sequence (Q969V1 whole entry G96A): as the sequence (Q969V1 whole entry I292A) above, with G96A, A292I counted along it
T8 sequence (Q969V1 whole entry Q271A): as the sequence (Q969V1 whole entry I292A) above, with Q271A, A292I counted along it
T4 sequence (Q99705 whole entry Y301A): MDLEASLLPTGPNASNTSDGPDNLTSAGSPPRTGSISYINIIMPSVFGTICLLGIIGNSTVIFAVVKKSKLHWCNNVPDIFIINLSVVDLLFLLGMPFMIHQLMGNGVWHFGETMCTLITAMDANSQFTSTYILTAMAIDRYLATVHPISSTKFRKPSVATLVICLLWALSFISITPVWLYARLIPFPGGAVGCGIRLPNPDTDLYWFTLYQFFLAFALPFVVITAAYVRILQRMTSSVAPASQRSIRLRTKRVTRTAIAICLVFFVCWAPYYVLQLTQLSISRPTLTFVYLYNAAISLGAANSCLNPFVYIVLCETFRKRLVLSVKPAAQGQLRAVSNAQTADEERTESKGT
T1 sequence (Q99705 whole entry L103A): as the sequence (Q99705 whole entry Y301A) above, with L103A, A301Y counted along it
T2 sequence (Q99705 whole entry F187A): as the sequence (Q99705 whole entry Y301A) above, with F187A, A301Y counted along it
T6 sequence (Q969V1 whole entry F186A): as the sequence (Q969V1 whole entry I292A) above, with F186A, A292I counted along it
T3 sequence (Q99705 whole entry P285A): as the sequence (Q99705 whole entry Y301A) above, with P285A, A301Y counted along it
T7 sequence (Q969V1 whole entry L188A): as the sequence (Q969V1 whole entry I292A) above, with L188A, A292I counted along it

For the molecule `CSCC[C@@H]1NC(=O)[C@@H](NC(=O)[C@H](CCCNC(=N)N)NC(=O)[C@H](CC(C)C)NC(=O)[C@H](CCSC)NC(=O)[C@H](CC(=O)O)NC(=O)[C@H](Cc2ccccc2)NC(=O)[C@@H](N)CC(=O)O)CSSC[C@@H](C(=O)N[C@@H](Cc2c[nH]c3ccccc23)C(=O)N[C@@H](CCC(N)=O)C(=O)N[C@H](C(=O)O)C(C)C)NC(=O)[C@@H]2CCCN2C(=O)[C@H](CCCNC(=N)N)NC(=O)[C@H](Cc2ccc(O)cc2)NC(=O)[C@H](C(C)C)NC(=O)[C@H](CCCNC(=N)N)NC(=O)CNC(=O)[C@H](CC(C)C)NC1=O` [MCH, Melanin-concentrating hormone], the Emax on MCHR1 L172(2.64)A was 107 ± 3%; at MCHR1 F256(ECL2)A it was 106 ± 2%; on MCHR1 P354(ECL3)A, 109 ± 1%; at MCHR1 Y370(7.42)A, -21 ± 4%; at MCHR2 G96(ECL1)A (AD293, mean ± S.E.M.) it was 96%; at MCHR2 F186(45.52)A, 98%. The Emax came to 101 ± 1% on MCHR2 L188(ECL2)A; 101 ± 1% on MCHR2 Q271(6.55)A (AD293, mean ± S.E.M.); 84 ± 2% at MCHR2 Y288(7.35)A (AD293, mean ± S.E.M.); 92 ± 2% at MCHR2 I292(7.39)A (AD293, mean ± S.E.M.). For the same molecule, the EC50 was 0.0155 µM on MCHR2 G96(ECL1)A (AD293, IP-One HTRF, 37 °C 1 h, mean ± S.E.M., P 0.0012 vs WT); 0.0275 µM at MCHR2 Q271(6.55)A (setting [1]); 1.23 µM on MCHR2 Y288(7.35)A (setting [1]); 0.129 µM on MCHR2 I292(7.39)A (setting [1]).

For the origin of these results see article PMC11074101 (Cell Discovery, 2024).
